Test results published in patent US10130590B2, “Methods of treating cancer with atovaquone-related compounds” (DANA-FARBER CANCER INSTITUTE, INC., priority 2013, dated 2018).

How the values were obtained:
Type in all cases: cell-based
HEL cells = experiment: PI cell cycle analysis, HEL; details: 25 μM, 24 hours
Description: Annexin V/PI staining was performed using Annexin V:FITC Apoptosis Detection Kit I (BD Biosciences). Staining for cell cycle analysis was performed as previously described (267). Staining for cell-surface receptors was performed in 50 μl PBS+2% FBS with 2 μl antibody to IL6R (BioLegend #352803) or 5 μl antibody to gp130 (BD Biosciences #555757) for 20 minutes on ice in the dark. Cells were washed twice, then resuspended in 300 μl of the same buffer. Samples were analyzed on a BD FACSCanto II machine. Transfection and siRNA Cells were reverse-transfected using Lipofectamine RNAiMAX (Invitrogen); the culture medium was changed 24 hours later. Control siRNA (D-001210-02) and REDD1 siRNA (M-010855-01) were from Thermo Scientific Dharmacon. Additionally, it was hypothesized atovaquone inhibits proliferation by disrupting cell cycle progression. […] In summary, atovaquone inhibits constitutive STAT3 activation and target gene expression in cancer cells, and reduces their survival and proliferation.

[1] = system: unfolded protein response (UPR); experiment: Other UPR branches: XBP1 splicing, ATF6 cleavage, UPR target genes
Description: (§1) Total RNA was reverse transcribed using random hexamers and assayed by qRT-PCR as previously described (see, Grivennikov S I, Greten F R, & Karin M (2010) Immunity, inflammation, and cancer. Cell 140(6):883-899).
In asking how atovaquone induces REDD1, a possible role for ATF4, which regulates REDD1 expression was considered. ATF4 is regulated mainly at the level of translation and is induced upon phosphorylation of eIF2α. […] K562 and AML2 cells, which lack STAT3 activation, were treated with rapamycin for 72 hours. […] For these reasons, it was hypothesized that atovaquone induces eIF2α phosphorylation, with a resulting increase in ATF4 protein and signaling. U266, K562, and SKBR3 cells were treated with atovaquone (20, 20, 25 μM respectively). […] The phospho-eIF2α/ATF4 pathway represents one branch of the UPR, whose other branches consist of ATF6 cleavage and IRE1-mediated XBP1 splicing. […] Thus, atovaquone selectively activates the phospho-eIF2α/ATF4 branch of the UPR. […] Consequently, atovaquone inhibition of STAT3 is not secondary to UPR activation.

gp130 mRNA = gp130 mRNA expression (qRT-PCR); details: MEF, MDA-MB, SKBR3, U266; 25 μM, 12 hours
Description: as §1
MEF, MDA-MB-468, and SKBR3 cells were treated with atovaquone (25 μM) for 6 or 12 hours, then analyzed by Western blot for expression of gp130 and various other receptors. […] In contrast, levels of other receptors—such as PDGFR-β, EGFR, HER2, and IGF1R-β—were not affected, again indicating a specific effect on gp130. […] In summary, atovaquone rapidly induces specific loss of cell-surface gp130, while total gp130 declines secondarily due to protein degradation.

## O=C1C(O)=C([C@H]2CC[C@H](c3ccc(Cl)cc3)CC2)C(=O)c2ccccc21 [atovaquone, trans-2-[4-(4-chlorophenyl)cyclohexyl]-3-hydroxy-1,4-naphthalenedione]
HEL cells
  population of cells in G2/M: decreased the population of cells in G2/M
  proportion of cells with lower DNA content: increased the proportion of cells with lower DNA content
[1]
  levels of BiP: no effect on levels of BiP
[1]; SKBR3, K562, U266, 25, 20, 20 μM
  ATF6 cleavage: did not induce
[1]; U266, K562, SKBR3, 20, 20, 25 μM, 6 hours
  spliced XBP1: did not induce spliced XBP1
[1]; U266, K562, SKBR3, 6 hours, in contrast to tunicamycin and thapsigargin
  UPR target gene expression: did not induce any UPR target genes other than those downstream of ATF4
gp130 mRNA
  gp130 mRNA expression: not significantly changed
